Several values for one entry are separate records, joined by “and”; a condition that tells them apart may be missing. Equal values may be shown once. ± gives the expanded uncertainty stated by the source.

Results on 3 compounds are retold here after the NIST ThermoML archive (doi:10.1016/j.fluid.2014.05.018).

For this data set the following is noted: Liquid, Ebulliometric method (Recirculating still).

As to `CCCC` [butane], the “vapor or sublimation pressure” value amounted to 379 ± 7 kPa (313.2 K); 645 ± 7 kPa (333.2 K); 1013 ± 8 kPa (353.2 K); 1525 ± 11 kPa (373.2 K); 2660 ± 14 kPa (403.2 K).
`CCO` [ethanol]: the “vapor or sublimation pressure” value runs as follows: (313.2 K) 18 ± 6 kPa; (333.2 K) 50 ± 6 kPa and 47 ± 6 kPa; (353.2 K) 110 ± 6 kPa and 108 ± 6 kPa; (373.2 K) 225 ± 6 kPa and 224 ± 6 kPa; (403.2 K) 585 ± 7 kPa and 572 ± 7 kPa.
On to `CC(C)C` [2-methylpropane], for which the “vapor or sublimation pressure” value is on record as 536 ± 7 kPa (313.2 K); 880 ± 8 kPa (333.2 K); 1363 ± 10 kPa (353.2 K); 2014 ± 12 kPa (373.2 K); 3377 ± 16 kPa (403.2 K).

Broadly, the vapor or sublimation pressure is the pressure of vapour in equilibrium with the condensed phase.
